Article PMC3804772, “Rational Design, Synthesis, and Biological Evaluation of Third Generation α-Noscapine Analogues as Potent Tubulin Binding Anti-Cancer Agents” (PLoS ONE, 2013)

Key:
MCF-7 cells = assay: Cell cycle analysis by flow cytometry (propidium iodide); type: cell-based, human; conditions: MCF-7, 25 µM
Protocol: The flow cytometric evaluation of the cell cycle status was performed as described previously. Briefly, cells (2 x 10^6) treated with the noscapinoids up to 72 h were centrifuged, washed twice with cold PBS, and fixed in 70% ethanol. Tubes containing the cell pellets were stored at 4 °C for minimum of 24 h. Cells were then centrifuged at 1000 x g for 10 min and the supernatant was discarded. The pellets were washed twice with 5 ml of PBS and then stained with 0.5 ml of propidium iodide (0.1% of Pl + 0.6% Triton-X in PBS) and 0.5 ml of RNase A (2 mg/ml) for 45 minutes in dark. Samples were then analyzed on a FACS Calibur flow cytometer ([…]).

[1] = tested on: human lymphoblast cell line (CEM); assay: In vitro cell proliferation assay (SRB), CEM; type: cell-based; conditions: 72 h, mean ± S.D.
Protocol: (§1) The cell proliferation assay was performed in 96-well plates as described previously. A panel of four cancer cell lines of different tissues of origins, namely: human lung adenocarcinoma epithelial cell line (A549), human lymphoblast cell line (CEM), human cervix cell line (HeLa) and human breast epithelial cell line (MCF-7) were studied. These cell lines were obtained from the National Repository of Animal Cell Culture, National Centre for Cell Sciences, Pune (NCCS), India. Briefly, 2 x10^3 cells were seeded in each well and were incubated with gradient concentrations of 5a, 6a-j compounds for 72 h. The cells were then fixed with 50% trichloroacetic acid and stained with 0.4% sulforhodamine B (SRB) dissolved in 1% acetic acid. Cells were then washed with1% acetic acid to remove excess (unbound) SRB. The protein-bound SRB was dissolved with 10 mM Tris base and the absorbance at 564 nm was determined using a SPECTRAmax PLUS 384 microplate spectrophotometer.

[2] = tested on: human lung adenocarcinoma epithelial cell line (A549); assay: In vitro cell proliferation assay (SRB), A549; type: cell-based; conditions: 72 h, mean ± S.D.
Protocol: as §1

[3] = tested on: human breast epithelial cell line (MCF-7); assay: In vitro cell proliferation assay (SRB), MCF-7; type: cell-based; conditions: MCF7, 72 h, mean ± S.D.
Protocol: as §1

[4] = tested on: human cervix cell line (HeLa); assay: In vitro cell proliferation assay (SRB), HeLa; type: cell-based; conditions: 72 h, mean ± S.D.
Protocol: as §1

tubulin = target: T1, tubulin (Bos taurus, UniProt P81947+Q6B856); assay: Tubulin binding assay (quenching of intrinsic tryptophan fluorescence); parameters: species or system bovine; conditions: for Kd: 2 µM tubulin, PEM buffer pH 6.8, 37 °C, 45 min, mean ± S.D.; for Experimental ΔGbind: calculated from KD, ΔGbind = RT ln KD, T = 298 K
T1 construct: Tubulin devoid of microtubule-associated proteins (MAPs) was purified from bovine brain; from tissue; host or cells: bovine brain
Protocol: Tubulin devoid of microtubule-associated proteins (MAPs) was purified from bovine brain by cycles of temperature-dependent polymerization and depolymerization as described previously followed by phosphocellulose chromatography. The concentration of the tubulin was determined by the method of Bradford using BSA as the standard. Purified tubulin was quickly frozen as drops in liquid nitrogen and stored at - 80 °C until used.
Noscapinoids quench the […] intrinsic tryptophan fluorescence of tubulin in a concentration-dependent fashion as described previously. This has allowed an easy method for measuring the tubulin-noscapinoids interactions. Briefly, the compounds 5a, 6a-j (0-200 µM) were incubated with 2 µM tubulin in PEM buffer (100 mM PIPES, pH 6.8, 3 mM MgSO4, and 1 mM EGTA) at 37 °C for 45 min. After incubation, the samples were excited at 295 nm. The relative intrinsic fluorescence intensity of the tubulin was then monitored in the absence and presence of the compound 5a, 6a-j using a Varian Cary Eclipse Fluorescence Spectrophotometer (Agilent Technologies, CA, USA). The emission readings were recorded at 335 nm. We used a 0.3 cm path-length cuvette to minimize the inner filter effects caused by the absorbance of the noscapinoids. In addition, the inner filter effects were corrected using a formula F corrected = F observed·antilog [(A ex + A em)/2], where A ex is the absorbance at the excitation wavelength and A em is the absorbance at the emission wavelength. The equilibrium dissociation constant (KD) was determined by the formula: 1/a = KD/[free ligand] + 1, where a is the fractional occupancy and [free ligand] is the concentration of free ligand. The fractional occupancy (a) was determined by the formula a = ΔF/ΔF max, where ΔF is the change in fluorescence intensity when tubulin and its ligand are in equilibrium and ΔF max is the value of maximum fluorescence change when tubulin is completely bound with its ligand. ΔF max was calculated by plotting 1/ΔF versus 1/ligand, using total ligand concentration as the first estimate of free ligand concentration. Three independent experiments were performed for each noscapinoid.

T1 sequence (Q6B856 whole entry): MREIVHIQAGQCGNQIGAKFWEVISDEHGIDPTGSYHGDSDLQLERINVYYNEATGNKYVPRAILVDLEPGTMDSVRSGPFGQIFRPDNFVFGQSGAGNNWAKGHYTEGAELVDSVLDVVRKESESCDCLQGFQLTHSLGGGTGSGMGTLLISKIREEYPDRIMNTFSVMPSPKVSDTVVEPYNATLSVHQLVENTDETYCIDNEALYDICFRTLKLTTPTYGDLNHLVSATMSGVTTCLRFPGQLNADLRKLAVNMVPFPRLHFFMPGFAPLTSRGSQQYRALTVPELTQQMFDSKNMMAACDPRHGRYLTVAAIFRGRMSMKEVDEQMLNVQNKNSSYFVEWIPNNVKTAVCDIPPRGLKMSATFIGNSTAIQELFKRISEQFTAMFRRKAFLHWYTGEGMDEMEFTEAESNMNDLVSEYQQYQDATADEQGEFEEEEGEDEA
T1 sequence (P81947 whole entry): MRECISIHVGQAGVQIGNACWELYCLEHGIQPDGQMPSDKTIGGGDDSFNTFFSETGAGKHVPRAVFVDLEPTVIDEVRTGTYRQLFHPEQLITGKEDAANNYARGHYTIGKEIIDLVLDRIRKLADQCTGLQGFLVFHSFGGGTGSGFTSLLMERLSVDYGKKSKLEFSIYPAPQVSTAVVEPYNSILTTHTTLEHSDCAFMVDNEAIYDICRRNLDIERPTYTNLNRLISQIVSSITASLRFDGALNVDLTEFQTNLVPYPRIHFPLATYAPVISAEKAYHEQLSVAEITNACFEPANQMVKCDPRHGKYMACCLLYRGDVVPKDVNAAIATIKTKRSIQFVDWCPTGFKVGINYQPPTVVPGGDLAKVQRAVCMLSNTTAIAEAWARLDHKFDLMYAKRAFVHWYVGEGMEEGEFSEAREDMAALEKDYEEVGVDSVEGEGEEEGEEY

SMILES | IC50 [2] [µM] | IC50 [3] [µM] | IC50 [4] [µM] | Kd (tubulin) [µM] | Experimental ΔGbind (tubulin) [kcal/mol] | melting point [°C] | Cell cycle parameters % G0/G1, 24 hours (MCF-7 cells) [%] | Cell cycle parameters % G2/M, 24 hours (MCF-7 cells) [%] | Cell cycle parameters % S, 24 hours (MCF-7 cells) [%] | Cell cycle parameters % Sub-G1, 24 hours (MCF-7 cells) [%] | Cell cycle parameters % G0/G1, 72 hours (MCF-7 cells) [%] | Cell cycle parameters % G2/M, 72 hours (MCF-7 cells) [%] | Cell cycle parameters % S, 72 hours (MCF-7 cells) [%] | Cell cycle parameters % Sub-G1, 72 hours (MCF-7 cells) [%] | IC50 [1] [µM]
COc1ccc2c(c1OC)C(=O)O[C@@H]2[C@@H]1NCCc2cc3c(c(OC)c21)OCO3 [Compound 5a, (S)-6,7-dimethoxy-3-((R)-4-methoxy-5,6,7,8-tetrahydro[1,3]dioxolo[4,5-g]isoquinolin-5-yl)isobenzofuran-1(3H)-one] | 41.6 ± 2.1 | 33.6 ± 1.3 | 20.9 ± 1.8 | 68 ± 0.7 | -5.691 | – | 13.47 | 66.37 | 4.08 | 8.46 | 10.74 | 39.25 | 7.08 | 41.57 | 8.9 ± 0.6
COc1ccc2c(c1OC)C(=O)O[C@@H]2[C@H]1c2c(cc3c(c2OC)OCO3)CCN1Cc1ccccc1 [Compound 6a, (S)-3-((R)-6-benzyl-4-methoxy-5,6,7,8-tetrahydro-[1,3]dioxolo[4,5-g]isoquinolin-5-yl)-6,7-dimethoxyisobenzofuran-1(3H)-one] | 37.7 ± 1.8 | 31.2 ± 1.5 | 19.4 ± 1.4 | – | – | 64 | 16.28 | 63.18 | 4.94 | 8.12 | 9.06 | 37.72 | 7.39 | 44.82 | 8.3 ± 0.4
COc1ccc2c(c1OC)C(=O)O[C@@H]2[C@H]1c2c(cc3c(c2OC)OCO3)CCN1Cc1ccc(Br)cc1 [Compound 6b, 5(S)-3-((R)-6-(4-bromobenzyl)-4-methoxy-5,6,7,8-tetrahydro-[1,3]dioxolo[4,5-g]isoquinolin-5-yl)-6,7-dimethoxyisobenzofuran-1(3H)-one] | 42.4 ± 2.3 | 34.1 ± 1.6 | 21.2 ± 2.1 | – | – | 76 | 19.42 | 64.42 | 4.16 | 7.37 | 11.38 | 35.84 | 7.53 | 43.18 | 9 ± 0.4
COc1ccc2c(c1OC)C(=O)O[C@@H]2[C@H]1c2c(cc3c(c2OC)OCO3)CCN1Cc1ccc([N+](=O)[O-])cc1 [Compound 6c, (S)-6,7-dimethoxy-3-((R)-4-methoxy-6-(4-nitrobenzyl)-5,6,7,8-tetrahydro-[1,3]dioxolo[4,5-g]isoquinolin-5-yl)isobenzofuran-1(3H)-one] | 49 ± 2.5 | 38.2 ± 2.5 | 23.7 ± 1.5 | 91 ± 8 | -5.518 | 154 | 20.72 | 63.49 | 4.85 | 8.08 | 15.38 | 38.41 | 8.27 | 36.73 | 10 ± 0.8

More lines, main results first:

IC50 [2] [µM] | IC50 [3] [µM] | IC50 [4] [µM] | Kd (tubulin) [µM] | Experimental ΔGbind (tubulin) [kcal/mol] | melting point [°C] | SMILES | Cell cycle parameters % G0/G1, 24 hours (MCF-7 cells) [%] | Cell cycle parameters % G2/M, 24 hours (MCF-7 cells) [%] | Cell cycle parameters % S, 24 hours (MCF-7 cells) [%] | Cell cycle parameters % Sub-G1, 24 hours (MCF-7 cells) [%] | Cell cycle parameters % G0/G1, 72 hours (MCF-7 cells) [%] | Cell cycle parameters % G2/M, 72 hours (MCF-7 cells) [%] | Cell cycle parameters % S, 72 hours (MCF-7 cells) [%] | Cell cycle parameters % Sub-G1, 72 hours (MCF-7 cells) [%] | IC50 [1] [µM]
33.5 ± 1.7 | 28.7 ± 0.8 | 17.9 ± 0.9 | – | – | 66 | COc1ccc(CN2CCc3cc4c(c(OC)c3[C@@H]2[C@H]2OC(=O)c3c2ccc(OC)c3OC)OCO4)cc1 [Compound 6d, (S)-6,7-dimethoxy-3-((R)-4-methoxy-6-(4-methoxybenzyl)-5,6,7,8-tetrahydro[1,3]dioxolo[4,5-g]isoquinolin-5-yl)isobenzofuran-1(3H)-one] | 22.73 | 59.41 | 4.62 | 7.27 | 8.29 | 36.18 | 7.83 | 45.38 | 7.7 ± 0.3
32.1 ± 1.6 | 27.8 ± 1.3 | 17.3 ± 0.7 | – | – | 62 | COc1ccc2c(c1OC)C(=O)O[C@@H]2[C@H]1c2c(cc3c(c2OC)OCO3)CCN1Cc1cccc(Cl)c1 [Compound 6e, (S)-3-((R)-6-(3-chlorobenzyl)-4-methoxy-5,6,7,8-tetrahydro-[1,3]dioxolo[4,5-g]isoquinolin-5-yl)-6,7-dimethoxyisobenzofuran-1(3H)-one] | 12.84 | 68.42 | 4.57 | 8.17 | 7.02 | 38.52 | 6.83 | 45.42 | 7.5 ± 0.6
61.3 ± 3.1 | 45.8 ± 2.2 | 28.3 ± 2.1 | – | – | 60 | COc1cccc(CN2CCc3cc4c(c(OC)c3[C@@H]2[C@H]2OC(=O)c3c2ccc(OC)c3OC)OCO4)c1 [Compound 6g, (S)-6,7-dimethoxy-3-((R)-4-methoxy-6-(3-methoxybenzyl)-5,6,7,8-tetrahydro-[1,3]dioxolo[4,5-g]isoquinolin-5-yl) isobenzofuran-1(3H)-one] | 20.94 | 62.28 | 4.08 | 10.86 | 12.76 | 37.93 | 8.07 | 40.29 | 11.9 ± 0.8
28 ± 1.5 | 25.3 ± 1.2 | 15.8 ± 0.5 | – | – | 179 | COc1ccc2c(c1OC)C(=O)O[C@@H]2[C@H]1c2c(cc3c(c2OC)OCO3)CCN1CC(C)=O [Compound 6h, (S)-6,7-dimethoxy-3-((R)-4-methoxy-6-(2-oxopropyl)-5,6,7,8-tetrahydro-[1,3]dioxolo[4,5-g]isoquinolin-5-yl) isobenzofuran-1(3H)-one] | 12.25 | 68.58 | 5.92 | 11.37 | 7.19 | 36.18 | 6.28 | 48.73 | 6.9 ± 0.5
